According to US12054562B2, “Cell-permeable inhibitory agent and methods of use thereof in treatment of cognitive and mood disorders” (priority 2015, dated 2024):

Legend:
[1] = molecular target: T1, α1 subunit containing GABAA receptors (Mus musculus, UniProt P62812); assay: Co-IP and WB, gephyrin and α1 subunit containing GABAA receptors; format: binding; conditions: immunoprecipitates from Example 1, hippocampal tissue
T1 construct: α1 and α2 subunit containing GABAA receptors in the hippocampal tissue; from tissue; host or cells: hippocampus of adult mice
T1 sequence (P62812 28-455): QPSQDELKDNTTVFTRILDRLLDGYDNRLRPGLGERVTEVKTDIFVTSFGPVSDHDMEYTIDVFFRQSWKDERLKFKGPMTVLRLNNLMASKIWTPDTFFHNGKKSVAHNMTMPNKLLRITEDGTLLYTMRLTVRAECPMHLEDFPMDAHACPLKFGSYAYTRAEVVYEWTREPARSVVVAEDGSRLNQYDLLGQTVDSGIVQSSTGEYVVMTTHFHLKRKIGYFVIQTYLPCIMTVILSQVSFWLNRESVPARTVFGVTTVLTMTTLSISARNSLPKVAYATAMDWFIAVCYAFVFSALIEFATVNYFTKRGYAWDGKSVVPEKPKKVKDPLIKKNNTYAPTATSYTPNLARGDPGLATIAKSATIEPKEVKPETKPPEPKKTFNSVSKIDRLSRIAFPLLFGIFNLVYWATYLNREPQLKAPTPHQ

[2] = system: etomidate-induced memory deficits in mice; assay: Novel object recognition task, treatment paradigm; format: in vivo, mouse; conditions: peptide given the day after etomidate, 4 hrs before behavioral testing
Method: In the present study, mice were handled two times a day, 5 min each before start of behavioral experiments. Object recognition was assessed in a circle opaque chamber with the diameter of 38.5 cm in a regular lit room. Each mouse was habituated to the chamber for 5 min since day 3. During the training phase, the mouse was allowed to explore two identical objects for 5 min. The mouse was then returned to its home cage for a retention period of 1 h. The mouse was reintroduced to the training context and presented with one familiar object and one novel object for 5 min. Movement and interaction with the objects was recorded with a video camera that was mounted above the chamber. The exploratory behavior and mouse activity was analyzed blindly by a person with a good training and the software EthoVision, XT v11.5 provided by the Noldus Information Tech Inc., (Leesburg VA, USA). Exploratory behavior was defined as sniffing, licking, or touching the object while facing the object. Memory was assessed by measuring the novelty preference ratio (i.e., the ratio of time spent exploring the novel object to the time spent exploring both objects). […] Total interaction time with both objects was compared between groups to determine whether the treatments affected locomotor activity or exploration during the testing phase. […]

[3] = molecular target: T2, α5 subunit-radixin interaction (Mus musculus, UniProt P26043); assay: Co-immunoprecipitation and Western blot of α5 subunit-radixin coupling in hippocampal tissue lysate; format: binding; conditions: 20 μM peptide without TAT sequence, one hour incubation
T2 construct: tissue lysate prepared from the hippocampus of adult mice; from tissue; host or cells: hippocampus of adult mice (C57BL/6J×SvEv)
T2 sequence (P26043 whole entry): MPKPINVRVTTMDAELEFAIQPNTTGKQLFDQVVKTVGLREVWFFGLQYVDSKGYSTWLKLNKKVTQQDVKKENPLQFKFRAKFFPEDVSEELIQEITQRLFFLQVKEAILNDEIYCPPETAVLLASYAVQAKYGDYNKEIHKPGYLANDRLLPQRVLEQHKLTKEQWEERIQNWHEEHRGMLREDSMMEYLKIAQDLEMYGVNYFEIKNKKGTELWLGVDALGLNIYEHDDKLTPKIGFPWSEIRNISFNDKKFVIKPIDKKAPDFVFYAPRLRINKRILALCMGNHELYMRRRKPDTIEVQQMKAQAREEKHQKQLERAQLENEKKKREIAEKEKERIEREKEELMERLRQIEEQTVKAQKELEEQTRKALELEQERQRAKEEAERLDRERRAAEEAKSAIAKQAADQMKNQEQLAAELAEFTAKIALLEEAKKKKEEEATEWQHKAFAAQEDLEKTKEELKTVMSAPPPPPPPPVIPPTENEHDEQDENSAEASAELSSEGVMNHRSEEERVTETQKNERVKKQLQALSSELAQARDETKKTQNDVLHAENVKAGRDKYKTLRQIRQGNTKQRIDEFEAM
Method: The experiments used tissue lysate prepared from the hippocampus of adult mice (C57BL/6J×SvEv, 2-4 month old, male). Hippocampal tissue was homogenized in ice-cold RIPA buffer (20 mM Tris-HCL, pH 7.5, 150 mM NaCl, 1 mM Na2EDTA, 1 mM EGTA, 1% NP-40, 1% sodium deoxycholate, 2.5 mM sodium pyrophosphate, 1 mM β-glycerophosphate) supplemented with 1 mM sodium orthovanadate and 1% protease inhibitor cocktail and 1% phosphatase inhibitor cocktail (Roche Diagnostics, GmbH, Manheim Germany). The tissue lysate was subsequently spun at 14,000 rpm for 30 min with the Microfuge 22R Centrifuge (Beckman Coulter™, Brea, California, US). The supernatant was collected and frozen at −20 C°. The next day, the supernatant, after thawing, was re-centrifuged at 14,000 rpm for another 30 min to clear the potential undissolved or pellet substances. After spinning twice, the supernatant was collected for subsequent experiments.
One hour following the incubation, the antibodies (2-4 μg) against either α5 subunit (cat #sc—31417, Santa Cruz Biotechnology, Inc., 10410 Finnell St. Dallas, TX, 75220, USA) or radixin (cat #ab91312, Abcam Inc., c/o 913860, PO Box 4090 Stn A, Toronto, ON M5W 0E9), or 4 μg of non-specific IgG protein (cat #sc—2028, Santa Cruz Biotechnology, Inc., 10410 Finnell St. Dallas, TX, 75220, USA), were added to the lysate solution. […]

[4] = system: GABAA receptor-mediated tonic current in hippocampal neurons; assay: Whole-cell voltage-clamp recordings of tonic current in astrocyte-neuron co-cultures; format: cell-based, mouse; conditions: co-treatment with etomidate 1 μM; recordings 24 h later
[5] = system: α5GABAA receptor cell-surface expression; assay: Receptor cell-surface ELISA assay in cultured hippocampal neurons; format: cell-based, mouse; conditions: neurons treated with peptide without exposure to etomidate

NYFTKRGWAWDGKKAL [inhibitory peptide]
effects on α1 subunit containing GABAA receptors (gephyrin interaction) [1]: did not have any effects
memory deficits in etomidate-treated mice (NOR, treatment) [2]: reversed
association between α5 subunit and radixin [3]: reduced the association
etomidate-induced increase in tonic current [4]: reversed
baseline α5GABAA receptors expression, total or cell surface level [5]: does not alter
